From patent US20050176727A1, “Oximes and hydrazones that are useful in treating sexual dysfunction” (priority 2004, published 2005)
Structures can show the parent of a compound that is named as a salt.

Assays:
[1] = system: penile erection in Wistar rats; experiment: Rat penile erection model; type: in vivo; conditions: reference compound
Description: Wistar rats were used as a primary animal model to study penile erection in vivo. All experiments were carried out between 9:00 AM and 3:00 PM in a diffusely illuminated testing room with a red light. Animals (n=8-30) were weighed and allowed to adapt to the testing room for 60 minutes before the beginning of experiments. Rats were placed individually in a transparent cage (20×30×30 cm) after drug injection.

Compound | melting point [°C] | most efficacious dose [1] [µmol/kg]
CC(C)O/N=C(\CCN1CCN(c2ccccn2)CC1)c1ccccc1 (as salt: maleate) [Example 31, (1E)-1-phenyl-3-(4-pyridin-2-ylpiperazin-1-yl)propan-1-one O-isopropyloxime] | 156 to 157 | –
ON=C(CCN1CCN(c2ccccn2)CC1)c1ccc(F)cc1 [Example 21, 1-(4-fluorophenyl)-3-(4-pyridin-2-ylpiperazin-1-yl)propan-1-one oxime] | 159 to 160 | –
O/N=C(\CCN1CCN(c2ccccn2)CC1)c1ccc(Cl)cc1 [Example 22, (1E)-1-(4-chlorophenyl)-3-(4-pyridin-2-ylpiperazin-1-yl)propan-1-one oxime] | 188 to 190 | –
CN1CCc2cccc3c2[C@H]1Cc1ccc(O)c(O)c1-3 [apomorphine, (6aR) 5,6,6a,7-tetrahydro-6-methyl-4H-dibenzo[de,g]quinoline-10,11-diol] | – | 0.1

More lines, main results first:

melting point [°C] | Compound | most efficacious dose [1] [µmol/kg]
127 to 128 | N#CCON=C(CCN1CCN(c2ccccn2)CC1)c1ccccc1 (as salt: maleate) [Example 29, ({[1-phenyl-3-(4-pyridin-2-ylpiperazin-1-yl)propylidene]amino}oxy)acetonitrile] | –
154 to 155 | CCCCON=C(CCN1CCN(c2ccccn2)CC1)c1ccccc1 (as salt: maleate) [Example 30, 1-phenyl-3-(4-pyridin-2-ylpiperazin-1-yl)propan-1-one O-butyloxime] | –
152 to 153 | CON=C(c1ccc(Cl)cc1)C(C)CN1CCN(c2ccccn2)CC1 (stereo not shown) (as salt: maleate) [Example 39, 1-(4-chlorophenyl)-2-methyl-3-(4-pyridin-2-ylpiperazin-1-yl)propan-1-one O-methyloxime] | –
